Test results taken from patent EP0497399A1, “Process for evaluating skin irritancy” (THE PROCTER & GAMBLE COMPANY, priority 1991, dated 1992).
In brackets after ≈: the same amount, converted by molar mass. Like-named read-outs stand apart in the source and are kept apart here. Marks after values point to notes of the source that are not given here.

Legend:
[1] = test system: HuK/F cultures; assay: Lactate dehydrogenase release into culture medium (cytotoxicity); format: cell-based, human; conditions: 48 hours
Experimental: (§1) For each HuK/F experiment, on a 24 well plate, 1 test material is evaluated at 4 concentrations (in quadruplicate wells per each concentration). In addition, 4 wells serve as medium control, and 4 wells as sodium dodecyl sulfate positive control. For each material evaluated, a dose-range finding study is performed at 0.001, 0.01, 0.1 and 1.0% (w/v) concentrations to determine the concentration eliciting minimum and maximum cytotoxicity in the MTT assay of cell viability. Based on the dose-range finding study, a range of test material concentrations is selected to determine the concentration eliciting minimum and maximum cytotoxicity in the MTT assay of cell viability. Based on the dose-range finding study, concentrations are selected at the maximal cytoxicity level and minimum level and at two 1/3 log intervals between these concentrations (e.g., if the maximum cytoxicity was at 1% with no cytotoxicity or cell death at 0.1% the concentrations evaluated subsequently would be 0.1, 0.3, 0.6 and 1%).
(§2) On treatment day, growth medium is aseptically aspirated, and the cell meshes are treated with two ml of test medium per well. Medium alone served as a no treatment control with 0.01% sodium dodecyl sulfate acting as a positive control (n=4 wells/group). All test plates are incubated at 37 °C and 5% carbon dioxide for 4 to 72 hours. Observations are made (e.g. changes in medium color) during the treatment period.
(§3) • 1. Place one untreated, precut mesh (no cells) into one or more wells to determine the background non-specific binding (NSB) of MTT to mesh and to act as absolute blank. In remaining wells place 1 mesh per well of the fibroblast/keratinocyte co-cultures. Add 2 ml of the assay medium which is supplied with the test kit. (Marrow-Tech supplies a medium). • 2. Remove medium from each well and add 2 ml/well of test agent diluted in assay medium. Refeed untreated control mesh and mesh without cells with assay medium. • 3. Incubate 48 hours at 37 °C in 5%. carbon dioxide atmosphere. • 4. Prepare a solution of 0.5 mg/ml MTT (Sigma Chemical Co. Catalog #M-2128) in assay medium. Centrifuge MTT/medium for 5 minutes at 3000 RPM to pellet undissolved crystals, then prewarm MTT in a 37 °C waterbath. • 5. Remove spent medium. Use 1 ml aliquot to analyze for lactate dehydrogenase and N-acetylglucosaminidase release and glucose; 1 ml can be saved under nitrogen at -70 °C for PGE2 analysis at a later time. • 6. Add 1 ml/well MTT/medium solution. Add medium without MTT to absolute blank well. Incubate cultures at 37 °C, 5% carbon dioxide for 3 hours. • 7. Remove MTT/medium and wash each mesh 2 times with 1 ml Dulbecco's phosphate buffered saline with calcium and magnesium (PBS). About 2-5 minutes each wash. • 8. Remove second PBS wash and add 2 ml isopropanol/well at room temperature 2 hours. This will extract the formazan from mitochondria of cells into the supernatant. (Note: the amount of MTT taken up by a cell culture and subsequently released by solvent extraction is proportional to the number of viable cells within the culture). Remove meshes from test well and stir on shaking vortex mixer. • 9. Transfer 200 microliter aliquots of the blue spent solvent from each well to a 96 well microtiter plate and read absorbance at 540 nm blanking to absolute blank (well not exposed to the MTT). The wells containing the NSB meshes should be subtracted from the test well absorbances before performing calculations below.

[2] = test system: HuK/F cultures; assay: N-acetylglucosaminidase release into culture medium (cytotoxicity); format: cell-based, human; conditions: 48 hours
Experimental: as §1, §2, §3

[3] = MTT assay of cell viability in human skin cell co-cultures on nylon mesh; format: cell-based; conditions: human, huk/f skin cell co-culture
Experimental: (§4) The MTT assay measures the reduction of a tetrazolium dye by electron transport in mitochondria of viable cells, and subsequent intracellular trapping of the formazan product. • 1. […] It is a measure of cell viability, and is performed on all treatment meshes immediately following medium collection. The MTT assay quantitates the reduction and subsequent trapping of a yellow tetrazolium dye which is reduced by the electron transport chain of functional mitochondria to a purple formazan dye. Briefly, MTT (3-[4,5-Dimethylthiazol-2yl]-2,5-diphenyltetrazolium bromide; Sigma Catalog #M-2128) powder is diluted in cell culture medium (0.5 mg./ml.) and pre-warmed to 37 °C before use. One ml of this dye solution is aliquoted onto each mesh, and the meshes are then incubated 3 hours at 37 °C and 5% CO₂. After incubation, the MTT is aspirated, and 2 ml. of pure isopropanol is used to extract the reduced dye for two hours at room temperature. The meshes are removed from the culture well and extraction solvent mixed by stirring before aliquoting for absorbance readings. The absorbance of each extract is read at 540 nm on a Biotek EL-312 (96 well) spectrophotometer. • 2.

[4] = test system: HuK cells; format: cell-based, human
Experimental: Human neonatal foreskin keratinocytes are grown in keratinocyte growth medium-KGM complete with epidermal growth factor, insulin, hydrocortisone, anti-microbial agents and supplemented with bovine pituitary extract. (This medium is available from Clonetics). Cultures are maintained in a humidified atmosphere at 37 °C and 5% carbon dioxide throughout the experiment. Four days prior to treatments keratinocytes are trypsinized and subcultured. KGM medium is used and Clonetics reagents and methods used as per their standard protocol. Cells are plated at a density of about 33,000/ well in a 24 well Corning culture plate.
In preliminary experiments with HuK/F co-cultures, two vital dye assays measuring cell viability can be used. […] The MTT assay quantitates the reduction and subsequent trapping of a yellow tetrazolium dye which is reduced by the electron transport chain of functional mitochondria to a purple formazan dye. […] The meshes are removed from the culture well and extraction solvent mixed by stirring before aliquoting for absorbance readings. The absorbance of each extract is read at 540 nm on a Biotek EL-312 (96 well) spectrophotometer. • 2. The Neutral Red Bioassay is described in Borenfreund, E., and Puerner, J., A Simple Quantitative Procedure Using Monolayer Cultures for Cytotoxicity Assays (HTD/NR-90), J. Tissue Cult. […]

[5] = test system: HuF cells; format: cell-based, human
Experimental: Human neonatal fibroblasts are grown in Dulbecco's Modified Eagles Medium (DMEM) supplemented with 10% Fetal Bovine Serum (FBS) (provided by Marrow-Tech). This maintenance medium is the same formulation as described for the above co-cultures with the substitution of 10% FBS for the 2% Ultroser-G medium. Twenty-four hours prior to treatment fibroblasts are trypsinized (Gibco, Trypsin EDTA, Catalog #610-5200AG) by placing 2 ml of 0.25% trypsin over PBS washed cells. After about 1 minute the trypsin is aspirated and cells observed microscopically for rounding up and release from the culture dish. […]
In preliminary experiments with HuK/F co-cultures, two vital dye assays measuring cell viability can be used. […] The MTT assay quantitates the reduction and subsequent trapping of a yellow tetrazolium dye which is reduced by the electron transport chain of functional mitochondria to a purple formazan dye. […] The meshes are removed from the culture well and extraction solvent mixed by stirring before aliquoting for absorbance readings. The absorbance of each extract is read at 540 nm on a Biotek EL-312 (96 well) spectrophotometer. • 2. The Neutral Red Bioassay is described in Borenfreund, E., and Puerner, J., A Simple Quantitative Procedure Using Monolayer Cultures for Cytotoxicity Assays (HTD/NR-90), J. Tissue Cult. […] The cells are evaluated using the standard neutral red assay methodology. […]

[6] = in vitro; conditions: human, keratinocyte monolayer
Text: The human keratinocyte monolayer cultures (available from Clonetics) were characterized using a fluorescein-labeled anti-cytokeratin antibody that stained the cytoskeleton of keratinocytes preferentially. This stain confirms that the cells are epithelial in nature.

[7] = test system: HuK/F cultures; assay: MTT assay of cell viability in human skin cell co-cultures on nylon mesh; format: cell-based
Experimental: as §4

[8] = human, huk/f skin cell co-culture, 48 h

For `CC(C)(C)CC(C)(C)c1ccc(OCCOCC[N+](C)(C)Cc2ccccc2)cc1` [Benzethonium Chloride], the “Lactate Dehydrogenase Release” value ([1]; 0.001 % w/v) was 433.5+ U/L, the “Lactate Dehydrogenase Release” value ([1]; 0.003 % w/v) was 1408.0+* U/L and the “Lactate Dehydrogenase Release” value ([1]; 0.006 % w/v) was 1344.0+* U/L. For the same molecule, the “Lactate Dehydrogenase Release” value ([1]; 0.01 % w/v) was 1471.5+ U/L, the “N-Acetylglucosaminidase Release” value ([2]; 0.001 % w/v) was 21.20+ U/L and the “N-Acetylglucosaminidase Release” value ([2]; 0.003 % w/v) was 37.63+* U/L. The “N-Acetylglucosaminidase Release” value ([2]; 0.006 % w/v) was 37.10+* U/L and the “N-Acetylglucosaminidase Release” value ([2]; 0.01 % w/v) was 21.73+* U/L.

For `CCCCCCCCCCCC[N+](C)(C)[O-]` [C12 DDAO, Dodecyl Dimethyl Amine Oxide], the CC50 at 48 h [3] was 180 µg/mL (≈ 0.785 mM), the “Lactate Dehydrogenase Release” value ([1]; 0.01 % w/v) was 116.0+ U/L and the “Lactate Dehydrogenase Release” value ([1]; 0.03 % w/v) was 1270.0+ U/L. For the same molecule, the “Lactate Dehydrogenase Release” value ([1]; 0.06 % w/v) was 1261.5+ U/L, the “Lactate Dehydrogenase Release” value ([1]; 0.1 % w/v) was 1196.0+ U/L and the “N-Acetylglucosaminidase Release” value ([2]; 0.01 % w/v) was 21.15 U/L. The “N-Acetylglucosaminidase Release” value ([2]; 0.03 % w/v) was 23.53+ U/L, the “N-Acetylglucosaminidase Release” value ([2]; 0.06 % w/v) was 23.33+ U/L and the “N-Acetylglucosaminidase Release” value ([2]; 0.1 % w/v) was 26.90+ U/L.

With `CCCCCCCCCCCCOS(=O)(=O)[O-].[Na+]` [Sodium Dodecyl Sulfate] the CC50 at 48 h ([3]; concentration w/v giving 50% decrease in MTT dye uptake vs untreated control, HuK/F, 48 hours, read-out: MTT-50 Endpoint (Concentration w/v)) was 57 µg/mL, the “more sensitive than HuK/F cultures (decrease in cell viability, NR assay)” value [4] was “about 10 fold” and the “more sensitive than HuK/F cultures (decrease in cell viability, NR assay)” value [5] was “about 10 fold”. For the same molecule, the fold induction at 48 h [6] was ~2.5.

For `CCCCCCCC/C=C\CCCCCCCC(=O)OCCOCC(OCCO)C1OCC(OCCO)C1OCCO` (stereo not drawn) [Tween 80, Polyoxyethylenesorbitan Monooleate], the CC50 at 48 h [3] was 4300 µg/mL (≈ 7.11 mM).

In the case of “Ammonium Coconut Alkyl Ethoxylate 6.5 Sulfate [NH4CNAE6.5S]”, the “MTT-50 Endpoint (Concentration w/v)” value [7, 8] is reported as 0.019%.

For “Ammonium Coconut Alkyl Ethoxylate 12 Sulfate [NH4CNAE12S]”, the “MTT-50 Endpoint (Concentration w/v)” value [7, 8] was 0.025%.

With Benzalkonium Chloride the “MTT-50 Endpoint (Concentration w/v)” value ([7]; concentration w/v giving 50% decrease in MTT dye uptake vs untreated control, HuK/F, 48 hours) was 0.0007%, the “Lactate Dehydrogenase Release” value ([1]; 0.0005 % w/v) was 138.5+ U/L and the “Lactate Dehydrogenase Release” value ([1]; 0.001 % w/v) was 1032.0+* U/L. For the same molecule, the “Lactate Dehydrogenase Release” value ([1]; 0.005 % w/v) was 1334.5+* U/L, the “Lactate Dehydrogenase Release” value ([1]; 0.01 % w/v) was 1236.5+* U/L and the “N-Acetylglucosaminidase Release” value ([2]; 0.0005 % w/v) was 14.95+ U/L. For the same molecule, the “N-Acetylglucosaminidase Release” value ([2]; 0.001 % w/v) was 18.08+* U/L, the “N-Acetylglucosaminidase Release” value ([2]; 0.005 % w/v) was 19.93+* U/L and the “N-Acetylglucosaminidase Release” value ([2]; 0.01 % w/v) was 11.98+* U/L.
